Measurements from PubChem BioAssay AID1919007 (Molecular Pharmacology Branch, DTP, NCI, 2023).

Test system: A498 complex spheroids with HUVEC/MSC, growth
Assay: Anticancer human tumor A498 cell line growth inhibition [AhR];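 further: seven day exposure starting three days after spheroid seeding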;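 on viability, T/C: luminescence signal used as a surrogate for viable cells; luminescence viability scaled so 100% equals DMSO vehicle wells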
Conditions: for IC50: curve of first compound; for viability, T/C: stronger effect = lower value
Outline: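 Complex tumor spheroids co-cultured with HUVEC and human MSC stroma; AhR antagonists tested in combination with standard-of-care and investigational agents. Top concentration at or near clinical Cmax (else 10 microM), half-log dilutions; growth expressed as percent test/control.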

[1] = second compound 0.1 µM, first compound 0.00949 µM
[2] = second compound 0.1 µM, first compound 0.03 µM
[3] = second compound 0.1 µM, first compound 0.0949 µM
[4] = second compound 0.1 µM, first compound 0.3 µM
[5] = second compound 0.316 µM, first compound 0.00949 µM
[6] = second compound 0.316 µM, first compound 0.03 µM
[7] = second compound 0.316 µM, first compound 0.0949 µM
[8] = second compound 0.316 µM, first compound 0.3 µM
[9] = second compound 1 µM, first compound 0.00949 µM
[10] = second compound 1 µM, first compound 0.03 µM
[11] = second compound 1 µM, first compound 0.0949 µM
[12] = second compound 1 µM, first compound 0.3 µM
[13] = second compound 3.16 µM, first compound 0.00949 µM
[14] = second compound 3.16 µM, first compound 0.03 µM
[15] = second compound 3.16 µM, first compound 0.0949 µM
[16] = second compound 3.16 µM, first compound 0.3 µM
[17] = second compound 10 µM, first compound 0.00949 µM
[18] = second compound 10 µM, first compound 0.03 µM
[19] = second compound 10 µM, first compound 0.0949 µM
[20] = second compound 10 µM, first compound 0.3 µM

Structure (SMILES): CC1COCCN1c1cc(C2(S(C)(=N)=O)CC2)nc(-c2ccnc3[nH]ccc23)n1 (stereo not given) + Cc1cncc(-c2nc(NCCc3c[nH]c4ccccc34)c3ncn(C(C)C)c3n2)c1
- IC50 (second compound 0.1 µM): 3550 nM
- IC50 (second compound 0.316 µM): 2690 nM
- IC50 (second compound 1 µM): 2260 nM
- IC50 (second compound 3.16 µM): < 31.6 nM
- IC50 (second compound 10 µM): < 31.6 nM
- viability, T/C (second compound 0.1 µM, first compound 0.0316 µM): 97.8%
- viability, T/C (second compound 0.1 µM, first compound 0.1 µM): 98.7%
- viability, T/C (second compound 0.1 µM, first compound 0.316 µM): 90.4%
- viability, T/C (second compound 0.1 µM, first compound 1 µM): 81.9%
- viability, T/C (second compound 0.1 µM, first compound 3.16 µM): 52.5%
- viability, T/C (second compound 0.1 µM, first compound 10 µM): 23.1%
- viability, T/C (second compound 0.316 µM, first compound 0.0316 µM): 94.9%
- viability, T/C (second compound 0.316 µM, first compound 0.1 µM): 102%
- viability, T/C (second compound 0.316 µM, first compound 0.316 µM): 96.3%
- viability, T/C (second compound 0.316 µM, first compound 1 µM): 78.5%
- viability, T/C (second compound 0.316 µM, first compound 3.16 µM): 45.7%
- viability, T/C (second compound 0.316 µM, first compound 10 µM): 27.5%
- viability, T/C (second compound 1 µM, first compound 0.0316 µM): 86.8%
- viability, T/C (second compound 1 µM, first compound 0.1 µM): 92%
- viability, T/C (second compound 1 µM, first compound 0.316 µM): 87.5%
- viability, T/C (second compound 1 µM, first compound 1 µM): 68.2%
- viability, T/C (second compound 1 µM, first compound 3.16 µM): 42.9%
- viability, T/C (second compound 1 µM, first compound 10 µM): 23.4%
- viability, T/C (second compound 3.16 µM, first compound 0.0316 µM): 37.1%
- viability, T/C (second compound 3.16 µM, first compound 0.1 µM): 37.2%
- viability, T/C (second compound 3.16 µM, first compound 0.316 µM): 39.5%
- viability, T/C (second compound 3.16 µM, first compound 1 µM): 35.5%
- viability, T/C (second compound 3.16 µM, first compound 3.16 µM): 33.9%
- viability, T/C (second compound 3.16 µM, first compound 10 µM): 21.9%
- viability, T/C (second compound 10 µM, first compound 0.0316 µM): 4.97%
- viability, T/C (second compound 10 µM, first compound 0.1 µM): 6.89%
- viability, T/C (second compound 10 µM, first compound 0.316 µM): 5.25%
- viability, T/C (second compound 10 µM, first compound 1 µM): 5.47%
- viability, T/C (second compound 10 µM, first compound 3.16 µM): 5.09%
- viability, T/C (second compound 10 µM, first compound 10 µM): 9.27%

Structure (SMILES): Nc1ncn(C2CC(O)C(CO)S2)c(=O)n1 (stereo not given) + Cc1cncc(-c2nc(NCCc3c[nH]c4ccccc34)c3ncn(C(C)C)c3n2)c1
- IC50 (second compound 0.1 µM): > 300 nM
- IC50 (second compound 0.316 µM): > 300 nM
- IC50 (second compound 1 µM): > 300 nM
- IC50 (second compound 3.16 µM): < 0.949 nM
- IC50 (second compound 10 µM): < 0.949 nM
- viability, T/C (second compound 0.1 µM, first compound 0.000949 µM): 90.1%
- viability, T/C (second compound 0.1 µM, first compound 0.003 µM): 89.7%
- viability, T/C [1]: 92.5%
- viability, T/C [2]: 77.8%
- viability, T/C [3]: 73.7%
- viability, T/C [4]: 63.3%
- viability, T/C (second compound 0.316 µM, first compound 0.000949 µM): 94.1%
- viability, T/C (second compound 0.316 µM, first compound 0.003 µM): 104%
- viability, T/C [5]: 95%
- viability, T/C [6]: 86.9%
- viability, T/C [7]: 80.6%
- viability, T/C [8]: 68.3%
- viability, T/C (second compound 1 µM, first compound 0.000949 µM): 83.6%
- viability, T/C (second compound 1 µM, first compound 0.003 µM): 86%
- viability, T/C [9]: 80.4%
- viability, T/C [10]: 73.4%
- viability, T/C [11]: 75.2%
- viability, T/C [12]: 68.2%
- viability, T/C (second compound 3.16 µM, first compound 0.000949 µM): 32.3%
- viability, T/C (second compound 3.16 µM, first compound 0.003 µM): 33.6%
- viability, T/C [13]: 36.5%
- viability, T/C [14]: 27.1%
- viability, T/C [15]: 29.6%
- viability, T/C [16]: 28.2%
- viability, T/C (second compound 10 µM, first compound 0.000949 µM): 5.79%
- viability, T/C (second compound 10 µM, first compound 0.003 µM): 5.22%
- viability, T/C [17]: 5.53%
- viability, T/C [18]: 6.62%
- viability, T/C [19]: 4.93%
- viability, T/C [20]: 5.47%

Structure (SMILES): O=C(C=Cn1cnc(-c2cc(C(F)(F)F)cc(C(F)(F)F)c2)n1)NNc1cnccn1 + Cc1cncc(-c2nc(NCCc3c[nH]c4ccccc34)c3ncn(C(C)C)c3n2)c1
- IC50 (second compound 0.1 µM): 81.5 nM
- IC50 (second compound 0.316 µM): 105 nM
- IC50 (second compound 1 µM): 78.2 nM
- IC50 (second compound 3.16 µM): 72.4 nM
- IC50 (second compound 10 µM): < 9.49 nM
- viability, T/C [1]: 86.3%
- viability, T/C [2]: 73.7%
- viability, T/C [3]: 46.5%
- viability, T/C [4]: 30.3%
- viability, T/C (second compound 0.1 µM, first compound 0.949 µM): 25.3%
- viability, T/C (second compound 0.1 µM, first compound 3 µM): 26.6%
- viability, T/C [5]: 87.2%
- viability, T/C [6]: 81.1%
- viability, T/C [7]: 51.5%
- viability, T/C [8]: 30.9%
- viability, T/C (second compound 0.316 µM, first compound 0.949 µM): 30.8%
- viability, T/C (second compound 0.316 µM, first compound 3 µM): 22.2%
- viability, T/C [9]: 84.8%
- viability, T/C [10]: 73.2%
- viability, T/C [11]: 45.6%
- viability, T/C [12]: 27.9%
- viability, T/C (second compound 1 µM, first compound 0.949 µM): 25%
- viability, T/C (second compound 1 µM, first compound 3 µM): 24.6%
- viability, T/C [13]: 69.3%
- viability, T/C [14]: 67.6%
- viability, T/C [15]: 43.9%
- viability, T/C [16]: 30.1%
- viability, T/C (second compound 3.16 µM, first compound 0.949 µM): 24.2%
- viability, T/C (second compound 3.16 µM, first compound 3 µM): 23.2%
- viability, T/C [17]: 3.95%
- viability, T/C [18]: 5.26%
- viability, T/C [19]: 7.65%
- viability, T/C [20]: 6.47%
- viability, T/C (second compound 10 µM, first compound 0.949 µM): 8.27%
- viability, T/C (second compound 10 µM, first compound 3 µM): 11.1%
